According to ChEMBL document CHEMBL6127086, “Recent advances in dual PROTACs degrader strategies for disease treatment” (Eur J Med Chem, 2024):
Starred links: 1 amine or outer side, 2 acyl side, 3 side chain; linkers in the order of their positions; H or OH if unused. Non-standard residues stand in square brackets, D forms with d. Residues, ends and D or L forms follow the SMILES beside them. *: point of attachment. X1 = O=C([C@H](Cc1ccc(C(F)(F)P(=O)(O)O)cc1)O[*:1])[*:2]; NHCH2(1,3-C6H4)CH2CO = O=C(Cc1cccc(CN[*:1])c1)[*:2]; Phenylacetyl(4-OH,3-OMe) = COc1cc(CC(=O)*)ccc1O; Benzoyl(3-Br,4-Me) = Cc1ccc(C(=O)*)cc1Br; X2 = Cc1ncsc1-c1ccc([C@@H](C)N*)cc1; Hyp = O=C(O)[C@@H]1C[C@@H](O)CN1; Tle = CC(C)(C)[C@H](N)C(=O)O

Columns and labels:
[1] = molecular target: T1, von Hippel-Lindau disease tumor suppressor/Bromodomain-containing protein 2 (Homo sapiens, UniProt P25440+P40337); experiment: PROTAC activity at VHL/BRD2 in human 22Rv1 cells assessed as degradation of BRD2 incubated for 16 hrs by Western blot analysis; type: cell-based
CWR22R = experiment: Antiproliferative activity against human 22Rv1 cells assessed as reduction in cell viability incubated for 72 hrs by Celltiter- Glo assay; type: functional, cell-based; details: 22Rv1, 72 h
VCaP = experiment: Antiproliferative activity against human VCaP cells assessed as reduction in cell viability incubated for 72 hrs by Celltiter- Glo assay; type: functional, cell-based
[2] = Antiproliferative activity against human LNCaP-95 cells assessed as reduction in cell viability incubated for 72 hrs by Celltiter- Glo assay; type: functional, cell-based; details: LNCaP-95, 72 h
[3] = Antiproliferative activity against human MINO cells assessed as reduction in cell viability incubated fro 72 hrs by Celltiter-glo reagent based analysis; type: functional
[4] = molecular target: T2, Protein cereblon/Tyrosine-protein phosphatase non-receptor type 1 (Homo sapiens, UniProt P18031+Q96SW2); experiment: PROTAC activity at PTP1B/CRBN human HepG2 cells assessed as protein degradation incubated for 16 hrs by Western blot analysis; type: cell-based
[5] = molecular target: T2, Protein cereblon/Tyrosine-protein phosphatase non-receptor type 1; experiment: PROTAC activity at PTP1B/CRBN human HepG2 cells assessed as protein degradation incubated for 24 hrs by Western blot analysis; type: cell-based
[6] = molecular target: T3, Protein cereblon/Bromodomain-containing protein 4 (Homo sapiens, UniProt O60885+Q96SW2); experiment: PROTAC activity at CRBN/BRD4 (unknown origin) expressed in HEK293 cells assessed as induction of BRD4 degradation measured after 4 hrs by Western blot analysis; type: cell-based
[7] = molecular target: T3, Protein cereblon/Bromodomain-containing protein 4; experiment: PROTAC activity at CRBN/BRD4 (unknown origin) expressed in HEK293 cells assessed as induction of BRD4 degradation incubated for 6 hrs by Western blot analysis; type: cell-based
RKO = experiment: Antiproliferative activity against human RKO cells assessed as reduction in cell viability by Celltiter-glo reagent based analysis; type: functional
[8] = molecular target: T1, von Hippel-Lindau disease tumor suppressor/Bromodomain-containing protein 2; experiment: PROTAC activity at human VHL/BRD2 in human HeLa cells assessed as degradation of BRD2 incubated for 16 hrs by Western blot analysis; type: cell-based
[9] = molecular target: von Hippel-Lindau disease tumor suppressor/Bromodomain-containing protein 4 (Homo sapiens) (UniProt O60885+P40337); experiment: PROTAC activity at human VHL/BRD4 in human HT-1080 cells assessed as maximum degradation of BRD4 at 0.2 uM incubated for 24 hrs by Western blot analysis relative to control; type: cell-based
[10] = molecular target: von Hippel-Lindau disease tumor suppressor/Bcl-2-like protein 1 (Homo sapiens, UniProt Q07817+P40337); experiment: PROTAC activity at VHL/BCL-XL in human Jurkat cells assessed as induction of BCL-XL degradation incubated for 16 hrs by immunoblot analysis; type: cell-based
[11] = molecular target: Protein cereblon/CREB-binding protein (Homo sapiens) (UniProt Q92793+Q96SW2); experiment: PROTAC activity at CRBN/CBP in human MV4-11 cells assessed as induction of protein degradation by measuring maximal degradation at 250 nM incubated for 24 hrs by Western blotting analysis relative to control; type: cell-based
OVCAR-8 = experiment: Antiproliferative activity against human OVCAR-8 cells assessed as inhibition of growth rate measured for 72 hrs; type: functional
[12] = molecular target: Protein cereblon/Bromodomain-containing protein 2 (Homo sapiens, UniProt P25440+Q96SW2); experiment: PROTAC activity at CRBN/BRD2 in human MV4-11 cells assessed as degradation of BRD2 protein incubated for 4 hrs by Western blotting assay; type: cell-based
[13] = molecular target: Protein cereblon/Bromodomain-containing protein 3 (Homo sapiens, UniProt Q15059+Q96SW2); experiment: PROTAC activity at CRBN/BRD3 in human MV4-11 cells assessed as degradation of BRD3 protein incubated for 4 hrs by Western blotting assay; type: cell-based
[14] = molecular target: Protein cereblon/Cyclin-dependent kinase 4 (Homo sapiens, UniProt P11802+Q96SW2); experiment: Protac activity at CRBN/CDK4 in human MDA-MB-231 cells assessed as induction of CDK4 degradation measured after 6 hrs by Western blot analysis; type: cell-based
[15] = molecular target: Protein cereblon/Cyclin-dependent kinase 6 (Homo sapiens, UniProt Q00534+Q96SW2); experiment: Protac activity at CRBN/CDK6 in human MDA-MB-231 cells assessed as induction of CDK6 degradation measured after 18 hrs by Western blot analysis; type: cell-based
[16] = molecular target: von Hippel-Lindau disease tumor suppressor/WD repeat-containing protein 5 (Homo sapiens, UniProt P61964+P40337); experiment: PROTAC activity at VHL/WDR5 in human MIA PaCa-2 cells assessed as degradation of WDR5 protein incubated for 18 hrs by Western blotting analysis; type: cell-based
Cereblon/Ikaros [17] = molecular target: T4, Cereblon/Ikaros (Homo sapiens, UniProt Q96SW2+Q13422); experiment: PROTAC activity at CRBN/IKZF1 in human MV4-11 cells assessed as degradation of IKZF1 protein incubated for 18 hrs by Western blotting analysis; type: cell-based
Cereblon/Ikaros [18] = molecular target: T4, Cereblon/Ikaros; experiment: PROTAC activity at CRBN/IKZF1 in human MV4-11 cells assessed as maximum degradation of protein at 0.1 uM incubated for 18 hrs by Western blotting analysis relative to control; type: cell-based

## Cc1ncsc1-c1ccc([C@H](C)NC(=O)[C@@H]2C[C@@H](O)CN2C(=O)[C@@H](NC(=O)COCCCOCCNC(=O)C[C@@H]2N=C(c3ccc(Cl)cc3)c3c(sc(C)c3C)-n3c(C)nnc32)C(C)(C)C)cc1
[1]
  DC50: < 5 nM
CWR22R
  IC50: < 1 nM
VCaP
  IC50: < 1 nM
[2]
  IC50: < 1 nM

## Cc1sc2c(c1C)C(c1ccc(Cl)cc1)=N[C@@H](CC(=O)Nc1ccc(OCCOCCOCCOCCNc3cccc4c3C(=O)N(C3CCC(=O)NC3=O)C4=O)cc1)c1nnc(C)n1-2 (some centres not stated)
[3]
  IC50: 14.5 nM

## COc1cc(CC(=O)N[C@@H](Cc2ccccc2)C(=O)O[C@@H](Cc2ccc(C(F)(F)P(=O)(O)O)cc2)C(=O)N[C@@H](CCCCNC(=O)c2ccc(C)c(Br)c2)C(=O)NCc2cccc(CC(=O)N[C@H](C(=O)N3C[C@H](O)C[C@H]3C(=O)N[C@H](C)c3ccc(-c4scnc4C)cc3)C(C)(C)C)c2)ccc1O ({Phenylacetyl(4-OH,3-OMe)}-F[X1]K(Benzoyl(3-Br,4-Me))[NHCH2(1,3-C6H4)CH2CO][Tle][Hyp]-X2)
[4]
  DC50: 14.1 nM
[5]
  DC50: 8.7 nM

## Cc1ncsc1-c1ccc([C@H](C)NC(=O)[C@@H]2C[C@@H](O)CN2C(=O)[C@@H](NC(=O)OCC(C)(COCCOCCOCCNC(=O)C[C@@H]2N=C(c3ccc(Cl)cc3)c3c(sc(C)c3C)-n3c(C)nnc32)COCCOCCOCCNc2cc3c(cc2F)C(=O)N(C2CCC(=O)NC2=O)C3=O)C(C)(C)C)cc1 (some centres not stated)
[6]
  DC50: 2.3 nM
[7]
  DC50: 2.1 nM
RKO
  EC50: 111 nM
[8]
  DC50: 15 nM

## Cc1ncsc1-c1ccc(NC(=O)[C@@H]2C[C@@H](O)CN2C(=O)[C@@H](NC(=O)COCCOCCOc2cc(OCC(=O)OC(C)(C)C)ccc2NC(=O)C[C@@H]2N=C(c3ccc(Cl)cc3)c3c(sc(C)c3C)-n3c(C)nnc32)C(C)(C)C)cc1
[9]
  Emax: 93%

## Cc1ncsc1-c1ccc([C@H](C)NC(=O)[C@@H]2C[C@@H](O)CN2C(=O)[C@@H](NC(=O)CN2CCN(CC(=O)N3CCN(C[C@]4(C)CCC(c5ccc(Cl)cc5)=C(CN5CCN(c6ccc(C(=O)NS(=O)(=O)c7ccc(N[C@H](CCN8C[C@H]9C[C@@H]8CO9)CSc8ccccc8)c(S(=O)(=O)C(F)(F)F)c7)cc6)CC5)C4)CC3)CC2)C(C)(C)C)cc1
[10]
  DC50: 0.6 nM

## CNC(=O)N1CCc2c(c(N3CCCc4cc(-c5cnn(C)c5)c(C(F)F)cc43)nn2C2CCN(C(=O)CCOCCOCCOCCOCCNc3ccc4c(c3)C(=O)N(C3CCC(=O)NC3=O)C4=O)CC2)C1 (configuration not stated)
[11]
  Emax: > 100%

## Cc1cc(S(=O)(=O)NCCOCCOCCOCCOCCNc2cccc3c2C(=O)N(C2CCC(=O)NC2=O)C3=O)ccc1Nc1ncc(Br)c(Nc2cccc(F)c2C(N)=O)n1 (configuration not stated)
OVCAR-8
  GR50: 33.1 nM

## Cc1ncsc1-c1ccc(CNC(=O)[C@@H]2C[C@@H](O)CN2C(=O)[C@@H](NC(=O)OCC(C)(COCCOCCOCCNC(=O)C[C@@H]2N=C(c3ccc(Cl)cc3)c3c(sc(C)c3C)-n3c(C)nnc32)COCCOCCOCCNC(=O)C[C@@H]2N=C(c3ccc(Cl)cc3)c3c(sc(C)c3C)-n3c(C)nnc32)C(C)(C)C)cc1
[12]
  DC50: 1.1 nM
[13]
  DC50: 3.3 nM

## CN(C)C(=O)c1cc2cnc(Nc3ccc(N4CCN(Cc5cn(CCCCCC(=O)Nc6cccc7c6C(=O)N(C6CCC(=O)NC6=O)C7=O)nn5)CC4)cn3)nc2n1C1CCCC1 (configuration not stated)
[14]
  DC50: 97 nM
[15]
  DC50: 300 nM

## CN1CCN(c2ccc(-c3cccc(CN4CCN(CCNC(=O)CCCCCCCNc5cccc6c5C(=O)N(C5CCC(=O)NC5=O)C6=O)CC4)c3)cc2NC(=O)c2c[nH]c(=O)cc2C(F)(F)F)CC1 (configuration not stated)
[16]
  DC50: 42 nM
Cereblon/Ikaros [17]
  DC50: 500 nM
Cereblon/Ikaros [18]
  Emax: 90%
